Reference: patent publication US20150025120A1, “PYRAZOLE-ALCOHOL COMPOUNDS AND PHARMACEUTICAL USE THEREOF” (JAPAN TOBACCO INC., priority 2013, published 2015)

What was measured:
human PDHK1 (hPDHK1) = target: T1, human PDHK1 (hPDHK1) (Homo sapiens, UniProt Q15118); assay: Inhibitory action of PDHK1 activity in vitro (residual PDH activity after kinase reaction); assay type: biochemical
T1 construct: made in house; host or cells: Escherichia coli BL21(DE3), pET17b
Procedure: The inhibitory action of PDHK activity was assessed indirectly by measuring the residual PDH activity after kinase reaction in the presence of a test compound.
In the case of human PDHK1 (hPDHK1, Genbank Accession No. L42450.1), a 1.3 kbp fragment encoding this protein was isolated from human liver cDNA by polymerase chain reaction (PCR). Modified hPDHK1 cDNA wherein FLAG-Tag sequence was added to the N terminus was prepared by PCR and cloned into a vector (pET17b-Novagen). The recombinant construct was transformed into Escherichia coli (DH5α-TOYOBO). The recombinant clones were identified, and plasmid DNA was isolated and subjected to the DNA sequence analysis. One clone which had the expected nucleic acid sequence was selected for expression work. […]
Then, 10 μL of substrates (5 mmol/L sodium pyruvate, 5 mmol/L Coenzyme A, 12 mmol/L NAD, 5 mmol/L thiamin pyrophosphate, diluted with buffer) were added. The mixture was incubated at room temperature for 90 min, and the residual PDH activity was measured.
The absorbance at 340 nm before and after PDH reaction was measured using a microplate reader to detect NADH produced by the PDH reaction. The hPDHK1 inhibition rate (%) of the test compound was calculated from the formula [{(PDH activity of the test compound−PDH activity of control)/PDH activity of blank−PDH activity of control)}× 100].

[1] = test system: Zucker Diabetic Fatty rats; assay: Effect of repeated administration of test compound on HbA1c in ZDF rats; assay type: in vivo, rat; settings: 1 mg/kg orally once daily, mean ± standard deviation (n = 10)
Procedure: Zucker Diabetic Fatty rats (male, 7-week-old, CHARLES RIVER LABORATORIES JAPAN INC.), an animal model for type 2 diabetes, given a purified diet (5.9% fat diet, Oriental Yeast Co., Ltd.) were allocated to the vehicle group and the test compound groups so that no bias occurred in the plasma glucose and insulin levels, HbA1c levels and body weights. Repeated oral doses of the test compound (1 mg/kg/5 mL) were administered to the rats once daily at 3 hr before the dark period. A 0.5% aqueous methylcellulose solution was orally administered in the same manner to the rats of the vehicle group. On day 14 or 21 of administration, blood samples were collected from the tail vein and HbA1c level (%) was measured. Statistical analysis was performed by Dunnett's test. Values of p<0.05 were considered statistically significant.

T1 sequence (Q15118 29-436): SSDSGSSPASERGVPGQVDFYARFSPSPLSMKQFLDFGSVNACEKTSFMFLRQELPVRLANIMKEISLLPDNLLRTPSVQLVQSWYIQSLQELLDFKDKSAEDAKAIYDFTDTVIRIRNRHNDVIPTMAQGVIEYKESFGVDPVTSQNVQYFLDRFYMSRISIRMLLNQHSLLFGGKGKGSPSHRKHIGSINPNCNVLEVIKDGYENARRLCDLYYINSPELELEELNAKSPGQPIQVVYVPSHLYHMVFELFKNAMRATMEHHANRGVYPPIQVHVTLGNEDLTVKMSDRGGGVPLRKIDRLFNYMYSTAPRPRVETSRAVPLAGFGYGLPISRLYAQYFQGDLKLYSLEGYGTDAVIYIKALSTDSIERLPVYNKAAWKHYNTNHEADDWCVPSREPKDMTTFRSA

Structure (SMILES) | IC50 (human PDHK1 (hPDHK1)) [nM] | HbAlc (%) ([1]; day 21 of administration) | HbAlc (%) ([1]; day 14 of administration)
C[C@H](O)COc1cc(-c2cnn(CC(C)(C)O)c2)c2c(c1)[C@@](O)(C(F)(F)F)c1ccccc1-2 [compound (1), (9R)-4-[1-(2-hydroxy-2-methylpropyl)-1H-pyrazol-4-yl]-2-((2S)-2-hydroxypropoxy)-9-(trifluoromethyl)-9H-fluoren-9-ol] | 28 | 3.6 ± 0.3 | –
CC(C)(O)COc1cc(-c2cnn(CC(C)(C)O)c2)c2c(c1)[C@@](O)(C(F)(F)F)c1ccccc1-2 [compound (2), (9R)-2-(2-hydroxy-2-methylpropoxy)-4-[1-(2-hydroxy-2-methylpropyl)-1H-pyrazol-4-yl]-9-(trifluoromethyl)-9H-fluoren-9-ol] | 34 | – | 3.5 ± 0.1
